Drawing on ChEMBL document CHEMBL1165915, “Dual Src and Abl inhibitors target wild type Abl and the AblT315I Imatinib-resistant mutant with different mechanisms” (Bioorg Med Chem, 2010), this text covers Ratio Ki for two compounds.

The species entered for experiment [1] is Homo sapiens. The experiment in a line: Selectivity ratio of Ki for human recombinant ABL T315I mutant to Ki for human recombinant ABL using abtide peptide as substrate.
The species entered for experiment [2] is Homo sapiens. The experiment in a line: Selectivity ratio of Ki for human recombinant ABL T315I mutant to Ki for human recombinant ABL using ATP as substrate.

Turning to `Cc1ccc(NC(=O)c2ccc(CN3CCN(C)CC3)cc2)cc1Nc1nccc(-c2cccnc2)n1`, the Ratio Ki in the experiment listed under Homo sapiens [1] and in the experiment listed under Homo sapiens [2] was 20 throughout.

Regarding `NC(=O)c1cccc(-c2cc(Nc3ccc(OC(F)(F)F)cc3)ncn2)c1`, the Ratio Ki in the experiment listed under Homo sapiens [1] and in the experiment listed under Homo sapiens [2] was 40 in each case.
